Test results reported in US20030162782A1, “Treatment of neuropathy” (priority 1999, published 2003).

Assays:
[1] = system: patients with diabetic polyneuropathy; assay: Anecdotal reports in patients with diabetic polyneuropathy after single doses of sildenafil; format: in vivo, human; conditions: single doses of 50 mg
[2] = system: men demonstrating positive symptoms of diabetic neuropathy; assay: Clinical trial of sildenafil versus placebo (crossover) with pain assessments (PDI, VAS Pain Score, Verbal Evaluation of Pain Relief); format: in vivo, human; conditions: 50 mg every night for 10 days, pain assessed by PDI, VAS Pain Score and Verbal Evaluation of Pain Relief
Experimental: The study was conducted using sidenafil, however it will be appreciated that the study may be conducted with other cGMP PDE5 inhibitors, for example one or more of the preferred cGMP PDE5 inhibitors listed hereinabove.
The patients then underwent a 7-day treatment-free phase in order to establish baseline data, including a series of pain assessments comprising determining the Pain Disability Index (PDI) (adapted from Tait et al 1990), the Visual Analogue Scale (VAS) Pain Score, and the Verbal Evaluation of Pain Relief. They were then treated with either sildenafil (50 mg) or placebo every night for 10 days and immediately after this period the patient's degree of pain was reassessed. A washout period of 10 days followed where the patients received no treatment. […] Immediately after this period the patient's degree of pain was assessed.
Pain Disability Index (PDI) is determined by patient questionnaire, and measures the overall impact of pain (on a scale of 0 to 10) associated with normal daily activities, (i.e. family/home responsibilities, recreation, social activity, occupation, self-care, sleeping). […]
Visual Analogue Scale (VAS) Pain Score is determined by the patient indicating on a continuous line from 0 (=no pain) to 100 (=pain as bad as it could be) the average level of a pain experienced during the assessment period. […]

Row | melting point | Structure (SMILES) | painful symptoms [1] | degree of pain experienced [2]
1 | 162.8 to 163.6 °C | CCCOc1ncc(C(C)=O)cc1-c1nc2c(CC)n(C3CN(C(C)C)C3)nc2c(=O)[nH]1 [Example 4, 5-(5-Acetyl-2-propoxy-3-pyridinyl)-3-ethyl-2-(1-isopropyl-3-azetidinyl)-2,6-dihydro-7H-pyrazolo[4,3-d]pyrimidin-7-one] | – | –
2 | – | CCCc1nn(C)c2c(=O)[nH]c(-c3cc(S(=O)(=O)N4CCN(C)CC4)ccc3OCC)nc12 [sildenafil, 5-[2-ethoxy-5-(4-methyl-1-piperazinylsulphonyl)phenyl]-1-methyl-3-n-propyl-1,6-dihydro-7H-pyrazolo[4,3-d]pyrimidin-7-one] | improvement in painful symptoms | reduction in the degree of pain experienced in a number of patients
